Data: paper PMC10445290, “Enantiomeric Fractions Reveal Differences in the Atropselective Disposition of 2,2′,3,5′,6-Pentachlorobiphenyl (PCB 95) in Wildtype, Cyp2abfgs-Null, and CYP2A6-Humanized Mice” (Chemical Research in Toxicology, 2023)

How the values were obtained:
[1] = design: method as in PMID 26463278; conditions: male Wistar rats, sub-acute oral exposure; cited from earlier work
[2] = Atropisomeric analysis of PCB 95 (enantiomeric fraction, EF) in tissues by chiral GC-ECD; type: in vivo, mice; conditions: racemic PCB 95 1.0 mg/kg oral, 24 h, EF = AE1/(AE1 + AE2)
Protocol: Adult male and female wild-type (WT) C57BL/6 mice, KO, and KI mice (4 months old) were exposed to racemic PCB 95. Mice were randomly assigned to exposure groups and received a single oral dose of PCB 95 (1.0 mg/kg) in stripped corn oil (10 mL/kg; lot# A0395699; cat# 801-03-7; Fisher Scientific) via gavage (5–7 mice per group). Control animals received corn oil alone (1–3 mice per group) to assess the potential background contamination with PCB 95. Animals were euthanized 24 h after PCB 95 exposure. Blood was collected from the heart and placed in pre-weighed glass vials with 80 μL of ethylenediaminetetraacetic acid solution (EDTA, 7.5%, w/w). The amount of blood in each vial was determined by weight prior to sample extraction. Adipose, brain, and liver tissues were excised from each animal and individually wrapped in aluminum foil. Samples were stored at −80 °C in separate plastic bags and shipped on dry ice to the University of Iowa for analysis.
Atropisomeric analyses of PCB 95 were performed with all samples using an Agilent 7890A gas chromatograph with a ^63Ni-μECD detector and a Chiralsil-Dex CB (25 m length, 250 μm inner diameter, 0.25 μm film thickness; Agilent, Santa Clara, CA, USA) following a published method with modifications.[48] The following temperature program was used for the atropisomeric analysis: 50 °C, hold for 1 min, 10 °C/min to 150 °C, hold for 65 min, 15 °C/min to 200 °C, and hold for 15 min. The injector and detector temperature was 250 °C, and the helium flow was 3.0 mL/min. The EF values of PCB 95 were calculated as EF = AE1/(AE1 + AE2) where AE1 and AE2 are the peak area of the first (E1) and the second eluting (E2) atropisomers, respectively. E1- and E2-PCB 95 correspond to aR- and aS-PCB 95, respectively.[16],[25]
Method blanks, blank tissue samples, and an ongoing precision and recovery standard were extracted in parallel with each sample batch. The method detection limits (MDLs) were determined based on method blanks (Table S3). Limits of quantification (LOQ) in different matrices were established based on the corresponding tissue blanks (Table S3). Surrogate standards, PCB 117 and 4′-159, were added to all samples to assess the precision and reproducibility of the analytical methods (Table S4). In addition, an ongoing precision and surrogate standard was in parallel extracted from both method and tissue blanks with each sample batch (Table S5). The resolution of atropisomers of PCB 95 on the Chiralsil Dex CB column was 1.27, calculated with the formula Rs = [tE2 – tE1)/(0.5 × (WE1 + WE2)], where tE1 and tE2 are the retention times of peaks 1 and 2, and WE1 and WE2 indicate the width of the peak E1 and E2. The EF value of the racemic standard of PCB 95 was 0.498 ± 0.004 (n = 7).
Levels of PCB 95 and its metabolites, expressed as ng per gram wet weight (ng/g), and EF values are reported as mean ± standard deviation (Tables S6 and S7). The statistical analyses were performed with two-way ANOVA with the Bonferroni model in GraphPad Prism 9.4.1 (Tables S8 and S9). In addition, OH-PCB metabolite profiles were compared using the similarity coefficient, cos θ (Tables S10 and S11).[49] The cos θ ranges from 0 to 1, where a value of 0 indicates completely different profiles and a value of 1 indicates identical profiles. The original data underlying this study are openly available through the Iowa Research Online repository at https://doi.org/10.25820/data.006613.

[3] = FKI, female CYP2A6-humanized mice
[4] = FKO, female Cyp2abfgs-null mice
[5] = MKI, male CYP2A6-humanized mice

Structure (SMILES): Clc1ccc(Cl)c(-c2c(Cl)ccc(Cl)c2Cl)c1 [PCB 95, 2,2′,3,5′,6-pentachlorobiphenyl]
- PCB 95 levels in adipose tissue [1]: 9300 ng/g
- PCB 95 levels in blood [1]: 9 ng/g
- PCB 95 levels in the cerebellum [1]: 51 ng/g
- PCB 95 levels in the cortex [1]: 29 ng/g
- PCB 95 levels in the liver [1]: 120 ng/g
- Enantiomeric fraction (EF) in adipose [2, 3]: 0.35 ± 0.02
- Enantiomeric fraction (EF) in blood [2, 3]: 0.28 ± 0.07
- Enantiomeric fraction (EF) in brain [2, 3]: 0.29 ± 0.01
- Enantiomeric fraction (EF) in liver [2, 3]: 0.24 ± 0.03
- Enantiomeric fraction (EF) in adipose [2, 4]: 0.41 ± 0.05
- Enantiomeric fraction (EF) in blood [2, 4]: 0.37 ± 0.07
- Enantiomeric fraction (EF) in brain [2, 4]: 0.39 ± 0.05
- Enantiomeric fraction (EF) in liver [2, 4]: 0.32 ± 0.06
- Enantiomeric fraction (EF) in adipose ([2]; FWT, female wildtype mice): 0.33 ± 0.02
- Enantiomeric fraction (EF) in blood ([2]; FWT, female wildtype mice): 0.32 ± 0.07
- Enantiomeric fraction (EF) in brain ([2]; FWT, female wildtype mice): 0.25 ± 0.03
- Enantiomeric fraction (EF) in liver ([2]; FWT, female wildtype mice): 0.20 ± 0.03
- Enantiomeric fraction (EF) in adipose [2, 5]: 0.36 ± 0.02
- Enantiomeric fraction (EF) in blood [2, 5]: 0.31 ± 0.03
- Enantiomeric fraction (EF) in brain [2, 5]: 0.32 ± 0.02
- Enantiomeric fraction (EF) in liver [2, 5]: 0.27 ± 0.03
- Enantiomeric fraction (EF) in adipose ([2]; MKO, male Cyp2abfgs-null mice): 0.38 ± 0.03
- Enantiomeric fraction (EF) in blood ([2]; MKO, male Cyp2abfgs-null mice): 0.35 ± 0.04
- Enantiomeric fraction (EF) in brain ([2]; MKO, male Cyp2abfgs-null mice): 0.34 ± 0.03
- Enantiomeric fraction (EF) in liver ([2]; MKO, male Cyp2abfgs-null mice): 0.28 ± 0.04
- Enantiomeric fraction (EF) in adipose ([2]; MWT, male wildtype mice): 0.37 ± 0.01
- Enantiomeric fraction (EF) in blood ([2]; MWT, male wildtype mice): 0.28 ± 0.02
- Enantiomeric fraction (EF) in brain ([2]; MWT, male wildtype mice): 0.31 ± 0.02
- Enantiomeric fraction (EF) in liver ([2]; MWT, male wildtype mice): 0.26 ± 0.02
